The structures appear in SMILES notation.

This is an account of results in patent US20260216170A1, “TETRAHYDROISOQUINOLINE HETEROBIFUNCTIONAL BCL-XL DEGRADERS” (Treeline Biosciences, Inc., priority 2023, published 2026).

The target in this test is T1, Human BCL-XL protein (N-terminal HiBiT tagged BCL-XL expressed in HT1080 cells) (Homo sapiens, UniProt Q07817).
T1 construct: expressed in transfected cells; host or cells: HT-1080 (ATCC CCL-121), stably transduced with lentivirus pLV-UBC-N-HiBiT-BCL-XL-PGK-puro and selected with puromycin
T1 sequence (Q07817 whole entry): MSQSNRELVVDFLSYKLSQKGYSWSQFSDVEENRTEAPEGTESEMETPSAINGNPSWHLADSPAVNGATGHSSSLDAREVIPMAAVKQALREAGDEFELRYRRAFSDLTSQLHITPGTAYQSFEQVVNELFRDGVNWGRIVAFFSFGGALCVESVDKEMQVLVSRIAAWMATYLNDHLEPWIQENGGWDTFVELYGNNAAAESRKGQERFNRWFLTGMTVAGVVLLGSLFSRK
The test is described as follows: HiBiT Based Degradation Assay. The format is cell-based. To be noted: 24 hours incubation; for DC50: BCL-XL degradation, HT1080 cells expressing N-HiBiT-BCL-XL, normalized with DMSO control, geometric mean for multiple data points, read-out: EC50 (24 h); for Ymin (24 h): bottom of BCL-XL degradation curve (remaining HiBiT-BCL-XL signal vs DMSO control), HT1080 cells. The source says:
HiBiT Based Degradation Assay
Human BCL-XL protein coding open reading frame fused with N-terminal HiBiT coding sequence (N-HiBiT-BCL-XL) was synthesized from Integrated DNA Technologies (IDT). Next, N-HiBiT-BCL-XL sequence was cloned into pLV-UBC-PGK-Puro, a lentivirus plasmid purchased from Vectorbuilder, to generate pLV-UBC-N-HiBiT-BCL-XL-PGK-puro. Lentiviral particles were generated from Lenti-X™ 293T cells (Clontech) by co-transfection of pLV-UBC-N-HiBiT-BCL-XL-PGK-puro plasmids and lentiviral packaging plasmid mix (Cellecta). HT-1080 [HT1080](ATCC CCL-121™) cells were infected with the lentivirus, and HT1080 cells stably integrated with the lentiviral vector were established by incubation with 1 μg/mL puromycin (Thermofisher). HT1080 cells expressing N-terminal HiBiT tagged BCL-XL were dispensed into 384-well plates pre-spotted with compounds at varying concentrations. Three thousand cells were seeded into each well in 40 μL of RPMI 1640 media. After 24 hours of incubation at 37° C. with 5% CO2, 30 μL of the NANO-GLO® HiBiT Lytic Detection System working solution (Promega) was added to each well and incubated at room temperature for 30 min. After incubation, luminescence was read on a PHERAstar FSX Plate Reader (BMG). BCL-XL degradation at each indicated concentration was normalized with DMSO control. The BCL-XL degradation curves were plotted using a four-parameter logistic model. For compounds displaying hook effects, curve fitting was performed using bottom point of hook curves (i.e., the point of Ymin) as bottom plateau to calculate EC50. For compounds with multiple data points, the geometric mean is presented.
On the technique in general: The HiBiT peptide binds its large partner to form an active luciferase.

As to `Cc1c(-c2ccc(N3CCc4cccc(C(=O)Nc5nc6ccccc6s5)c4C3)nc2C(=O)O)cccc1N(C)CCCC1CCN(CC(=O)Nc2ccc3c(C4CCC(=O)NC4=O)nn(C)c3c2)CC1` (stereo not drawn) [Compound 220], the DC50 fell in the range of 0.01 to 0.1 µM and the “Ymin (24 h)” value is listed as “C (50% ≤ Ymin < 70%)”.
In the case of `C[C@@H](COc1ccc(-c2ccc(N3CCc4cccc(C(=O)Nc5nc6ccccc6s5)c4C3)nc2C(=O)O)c(C(F)(F)F)c1)CC1CCN(CC(=O)Nc2ccc3c(C4CCC(=O)NC4=O)nn(C)c3c2)CC1` (single isomer, unassigned) [Compound 130a], the DC50 lay in the range of 0.01 to 0.1 µM and the “Ymin (24 h)” value is on record as “B (30% ≤ Ymin < 50%)”.
On the same counts, the results for `Cn1nc(C2CCC(=O)NC2=O)c2ccc(NC(=O)CN3CCC(CCCOc4cccc(-c5ccc(N6CCc7cccc(C(=O)Nc8nc9ccccc9s8)c7C6)nc5C(=O)O)c4F)CC3)c(F)c21` (stereo not drawn) [Compound 211] are 0.01 to 0.1 µM and “C (50% ≤ Ymin < 70%)”.
On the same counts, the results for `Cc1cc(OC2CC3(CCN(CC(=O)Nc4ccc5c(C6CCC(=O)NC6=O)nn(C)c5n4)CC3)C2)ccc1-c1ccc(N2CCc3cccc(C(=O)Nc4nc5ccccc5s4)c3C2)nc1C(=O)O` (stereo not drawn) [Compound 195] are below 0.01 µM and “B (30% ≤ Ymin < 50%)”.
In the same order, the values of `Cn1nc(C2CCC(=O)NC2=O)c2ccc(NC(=O)CN3CCC4(CC3)CC(Oc3ccc(-c5ccc(N6CCc7ccnc(C(=O)Nc8nc9ccccc9s8)c7C6)nc5C(=O)O)c(C(F)(F)F)c3)C4)c(F)c21` (stereo not drawn) [Compound 203] are 0.01 to 0.1 µM and “B (30% ≤ Ymin < 50%)”.
On to `Cn1nc(C2CCC(=O)NC2=O)c2ccc(NC(=O)CN3CCC4(CCC(Oc5cccc(-c6ccc(N7CCc8cccc(C(=O)Nc9nc%10ccccc%10s9)c8C7)nc6C(=O)O)c5C(F)(F)F)CC4)CC3)cc21` (stereo not drawn) [Compound 196], for which the DC50 was below 0.01 µM and the “Ymin (24 h)” value was “B (30% ≤ Ymin < 50%)”.
Regarding `Cc1c(OC[C@H]2C[C@@H]2C2CCN(CC(=O)Nc3ccc4c(C5CCC(=O)NC5=O)nn(C)c4c3)CC2)cccc1-c1ccc(N2CCc3cccc(C(=O)Nc4nc5ccccc5s4)c3C2)nc1C(=O)O` (single isomer, unassigned) [Compound 1001b], the DC50 lay within 0.01 to 0.1 µM and the “Ymin (24 h)” value is “B (30% ≤ Ymin < 50%)”.
Take `Cc1cc(N(C)CCCC2CCN(CC(=O)Nc3ccc4c(C5CCC(=O)NC5=O)nn(C)c4c3)CC2)ccc1-c1ccc(N2CCc3cccc(C(=O)Nc4nc5ccccc5s4)c3C2)nc1C(=O)O` (stereo not drawn) [Compound 222, 6-(8-(benzo[d]thiazol-2-ylcarbamoyl)-3,4-dihydroisoquinolin-2(1H)-yl)-3-(4-((3-(1-(2-((3-(2,6-dioxopiperidin-3-yl)-1-methyl-1H-indazol-6-yl)amino)-2-oxoethyl)piperidin-4-yl)propyl)(methyl)amino)-2-methylphenyl)picolinic acid]: the DC50 is below 0.01 µM and the “Ymin (24 h)” value is “A (Ymin < 30%)”.
Regarding `Cc1cc(OCC2CC3(CCN(CC(=O)Nc4ccc5c(C6CCC(=O)NC6=O)nn(C)c5c4C(F)(F)F)CC3)C2)ccc1-c1ccc(N2CCc3cccc(C(=O)Nc4nc5ccccc5s4)c3C2)nc1C(=O)O` (stereo not drawn) [Compound 136], the DC50 is 0.01 to 0.1 µM and the “Ymin (24 h)” value is “B (30% ≤ Ymin < 50%)”.
On the same counts, the results for `Cc1cc(OC[C@H]2C[C@@H]2C2CCN(CC(=O)Nc3ccc4c(C5CCC(=O)NC5=O)nn(C)c4c3)CC2)ccc1-c1ccc(N2CCc3cccc(C(=O)Nc4nc5ccccc5s4)c3C2)nc1C(=O)O` (relative stereo) [Compound 1003a, 6-(8-(benzo[d]thiazol-2-ylcarbamoyl)-3,4-dihydroisoquinolin-2(1H)-yl)-3-(4-(((1S,2R)-2-(1-(2-((3-(2,6-dioxopiperidin-3-yl)-1-methyl-1H-indazol-6-yl)amino)-2-oxoethyl)piperidin-4-yl)cyclopropyl)methoxy)-2-methylphenyl)picolinic acid] are below 0.01 µM and “A (Ymin < 30%)”.
On the same counts, the results for `Cc1c(OCCC2CC3(CCN(CC(=O)Nc4ccc5c(C6CCC(=O)NC6=O)nn(C)c5c4)CC3)C2)cccc1-c1ccc(N2CCc3cccc(C(=O)Nc4nc5ccccc5s4)c3C2)nc1C(=O)O` (stereo not drawn) [Compound 114, 6-(8-(benzo[d]thiazol-2-ylcarbamoyl)-3,4-dihydroisoquinolin-2(1H)-yl)-3-(3-(2-(7-(2-((3-(2,6-dioxopiperidin-3-yl)-1-methyl-1H-indazol-6-yl)amino)-2-oxoethyl)-7-azaspiro[3.5]nonan-2-yl)ethoxy)-2-methylphenyl)picolinic acid] are 0.01 to 0.1 µM and “B (30% ≤ Ymin < 50%)”.
Regarding `COc1c(NC(=O)CN2CCC3(CC2)CC(Oc2cccc(-c4ccc(N5CCc6cccc(C(=O)Nc7nc8ccccc8s7)c6C5)nc4C(=O)O)c2C)C3)ccc2c(C3CCC(=O)NC3=O)nn(C)c12` (stereo not drawn) [Compound 164, 6-(8-(benzo[d]thiazol-2-ylcarbamoyl)-3,4-dihydroisoquinolin-2(1H)-yl)-3-(3-((7-(2-((3-(2,6-dioxopiperidin-3-yl)-7-methoxy-1-methyl-1H-indazol-6-yl)amino)-2-oxoethyl)-7-azaspiro[3.5]nonan-2-yl)oxy)-2-methylphenyl)picolinic acid], the DC50 was in the range of 0.01 to 0.1 µM and the “Ymin (24 h)” value is “B (30% ≤ Ymin < 50%)”.
In the same order, the values of `Cc1c(OC[C@@H]2C[C@H]2C2CCN(CC(=O)Nc3ccc4c(C5CCC(=O)NC5=O)nn(C)c4c3)CC2)cccc1-c1ccc(N2CCc3cccc(C(=O)Nc4nc5ccccc5s4)c3C2)nc1C(=O)O` (single isomer, unassigned) [Compound 1001a] are 0.01 to 0.1 µM and “B (30% ≤ Ymin < 50%)”.
In the same order, the values of `C[C@H]1C[C@@H](CCCOc2ccc(-c3ccc(N4CCc5cccc(C(=O)Nc6nc7ccccc7s6)c5C4)nc3C(=O)O)c(C(F)(F)F)c2)CCN1CC(=O)Nc1ccc2c(C3CCC(=O)NC3=O)nn(C)c2c1` (stereo partly drawn) [Compound 209a, 6-(8-(benzo[d]thiazol-2-ylcarbamoyl)-3,4-dihydroisoquinolin-2(1H)-yl)-3-(4-(3-((2S,4S)-1-(2-((3-(2,6-dioxopiperidin-3-yl)-1-methyl-1H-indazol-6-yl)amino)-2-oxoethyl)-2-methylpiperidin-4-yl)propoxy)-2-(trifluoromethyl)phenyl)picolinic acid] are 0.01 to 0.1 µM and “A (Ymin < 30%)”.
In the same order, the values of `COc1c(NC(=O)CN2CCC(CCCOc3ccc(-c4ccc(N5CCc6ccnc(C(=O)Nc7nc8ccccc8s7)c6C5)nc4C(=O)O)c(C(F)(F)F)c3)CC2)ccc2c(C3CCC(=O)NC3=O)nn(C)c12` (stereo not drawn) [Compound 158, 6-[8-(1,3-benzothiazol-2-ylcarbamoyl)-3,4-dihydro-1H-2,7-naphthyridin-2-yl]-3-[4-[3-[1-[2-[[3-(2,6-dioxo-3-piperidyl)-7-methoxy-1-methyl-indazol-6-yl]amino]-2-oxo-ethyl]-4-piperidyl]propoxy]-2-(trifluoromethyl)phenyl]pyridine-2-carboxylic acid] are 0.01 to 0.1 µM and “B (30% ≤ Ymin < 50%)”.
With `Cn1nc(C2CCC(=O)NC2=O)c2ccc(NC(=O)CN3CCC4(CC3)CC(COc3ccc(-c5ccc(N6CCc7ccnc(C(=O)Nc8nc9ccccc9s8)c7C6)nc5C(=O)O)c(C(F)(F)F)c3)C4)cc21` (stereo not drawn) [Compound 160, 6-[8-(1,3-benzothiazol-2-ylcarbamoyl)-3,4-dihydro-1H-2,7-naphthyridin-2-yl]-3-[4-[[7-[2-[[3-(2,6-dioxo-3-piperidyl)-1-methyl-indazol-6-yl]amino]-2-oxo-ethyl]-7-azaspiro[3.5]nonan-2-yl]methoxy]-2-(trifluoromethyl)phenyl]pyridine-2-carboxylic acid], the DC50 is below 0.01 µM and the “Ymin (24 h)” value was “B (30% ≤ Ymin < 50%)”.
As to `Cc1cc(OCCC[C@@H]2CCN(CC(=O)Nc3ccc4c(C5CCC(=O)NC5=O)nn(C)c4c3)[C@H](C)C2)ccc1-c1ccc(N2CCc3ccnc(C(=O)Nc4nc5ccccc5s4)c3C2)nc1C(=O)O` (stereo partly drawn) [Compound 219d], the DC50 is below 0.01 µM and the “Ymin (24 h)” value is listed as “A (Ymin < 30%)”.
On the same counts, the results for `COc1c(NC(=O)CN2CCC3(CC2)CC(Oc2cccc(-c4ccc(N5CCc6ccnc(C(=O)Nc7nc8ccccc8s7)c6C5)nc4C(=O)O)c2C)C3)ccc2c(C3CCC(=O)NC3=O)nn(C)c12` (stereo not drawn) [Compound 184, 6-[8-(1,3-benzothiazol-2-ylcarbamoyl)-3,4-dihydro-1H-2,7-naphthyridin-2-yl]-3-[3-[[7-[2-[[3-(2,6-dioxo-3-piperidyl)-7-methoxy-1-methyl-indazol-6-yl]amino]-2-oxo-ethyl]-7-azaspiro[3.5]nonan-2-yl]oxy]-2-methyl-phenyl]pyridine-2-carboxylic acid] are below 0.01 µM and “B (30% ≤ Ymin < 50%)”.
